In ChEMBL document CHEMBL4400572, “Small structural alterations greatly influence the membrane affinity of lipophilic ligands: Membrane interactions of bafilomycin A1 and its desmethyl derivative bearing 19F-labeling” (Bioorg Med Chem, 2019):

How the values were obtained:
[1] = Permeability of the compound assessed as molar fraction in donor well at 0.5 mM measured after 2 hrs by PAMPA; type: ADME; conditions: 500 µM
[2] = Permeability of the compound assessed as rate constant for coming off the membrane by PAMPA; type: ADME
[3] = Permeability of the compound assessed as molar fraction in membrane at 0.5 mM measured after 16 hrs by PAMPA; type: ADME; conditions: 500 µM
[4] = Permeability of the compound assessed as molar fraction in acceptor well at 0.5 mM measured after 16 hrs by PAMPA; type: ADME; conditions: 500 µM
[5] = n-Octanol/water partition coefficient, log P of the compound by UV-RP-HPLC analysis; type: physicochemical
[6] = Permeability of the compound assessed as molar fraction in donor well at 0.5 mM measured immediately by PAMPA; type: ADME; conditions: 500 µM
[7] = Permeability of the compound assessed as molar fraction in donor well at 0.5 mM measured after 16 hrs by PAMPA; type: ADME; conditions: 500 µM
[8] = Permeability of the compound assessed as molar fraction in acceptor well at 0.5 mM measured after 2 hrs by PAMPA; type: ADME; conditions: 500 µM
[9] = Permeability of the compound assessed as ratio of Kin to Kout by PAMPA; type: ADME
[10] = Permeability of the compound assessed as molar fraction in membrane at 0.5 mM measured after 2 hrs by PAMPA; type: ADME; conditions: 500 µM
[11] = Permeability of the compound assessed as rate constant for partitioning to the membrane by PAMPA; type: ADME
[12] = Permeability of the compound by PAMPA
[13] = test system: Lipid bilayer; test: Binding affinity to POPC liposome membrane assessed as intrinsic dipolar splitting (D) at <1 mg by solid-state 19F NMR spectra analysis
[14] = n-Octanol/water partition coefficient, log P of the compound by RP-HPLC analysis; type: physicochemical

Row | permeability [1] [%] | K [2] [×10⁻⁷ /s] | permeability [3] [%] | permeability [4] [%] | logP [5] | permeability [6] [%] | permeability [7] [%] | permeability [8] [%] | Ratio [9] | permeability [10] [%] | K [11] [×10⁻⁵ /s] | D [13] [kHz] | logP [14] | Structure (SMILES) | Papp [12] [×10⁻⁶ cm/s]
1 | 63.4 | 5.91 | 63.1 | 6.7 | 2.81 | 100 | 30.2 | 2.8 | 143 | 33.7 | 7.08 | 2.4 | – | CO/C1=C\C(C)=C\C[C@@H](O)CC/C(C)=C/C=C/[C@H](OC)[C@@H]([C@@H](C)[C@@H](O)[C@H](C)[C@@]2(O)C[C@@H](O)[C@H](C)[C@@H](C(F)(F)F)O2)OC1=O | –
2 | – | – | – | – | – | – | – | – | – | – | – | – | 4.29 | Cc1c(Cl)cccc1Cl | –
3 | – | – | – | – | 3.84 | – | – | – | – | – | – | – | – | Cc1ccc(C(=O)c2ccc(C)cc2)cc1 | –
4 | 52.2 | 2.47 | 83.7 | -0.2 | 4.54 | 100 | 16.6 | -0.5 | 393 | 48.3 | 9.55 | 2.9 | – | CO/C1=C\C(C)=C\[C@@H](C)[C@@H](O)[C@@H](C)C/C(C)=C/C=C/[C@H](OC)[C@@H]([C@@H](C)[C@@H](O)[C@H](C)[C@@]2(O)C[C@@H](O)[C@H](C)[C@@H](C(F)(F)F)O2)OC1=O | –

More lines, now with the values behind:

Row | Structure (SMILES) | permeability [1] [%] | K [2] [×10⁻⁷ /s] | permeability [3] [%] | permeability [4] [%] | logP [5] | permeability [6] [%] | permeability [7] [%] | permeability [8] [%] | Ratio [9] | permeability [10] [%] | K [11] [×10⁻⁵ /s] | D [13] [kHz] | logP [14] | Papp [12] [×10⁻⁶ cm/s]
5 | CO/C1=C\C(C)=C\[C@@H](C)[C@@H](O)[C@@H](C)C/C(C)=C/C=C/[C@H](OC)[C@@H]([C@@H](C)[C@@H](O)[C@H](C)[C@@]2(O)C[C@@H](O)[C@H](C)[C@@H](C(C)C)O2)OC1=O [BAFILOMYCIN A1] | 27.4 | 3.25 | 90.5 | -1.5 | 4.74 | 100 | 11 | 4.8 | 1170 | 67.9 | 20.7 | – | – | –
6 | Cn1c(=O)c2[nH]cnc2n(C)c1=O.O [THEOPHYLLINE] | – | – | – | – | – | – | – | – | – | – | – | – | – | 0.0848
7 | OC/C=C/c1ccccc1 [CINNAMIC ALCOHOL] | – | – | – | – | – | – | – | – | – | – | – | – | 1.9 | –
